Source: patent US20230192617A1, “AZABICYCLIC(THIO)AMIDES AS FUNGICIDAL COMPOUNDS” (Bayer CropScience Aktiengesellschaft, priority 2020, published 2023)

Columns and labels:
[1] = system: Alternaria alternata; experiment: Alternaria alternata in vitro cell test; format: cell-based; conditions: 120 h, 20 ppm of active ingredient, liquid culture, 5 days incubation, spectrometric measurement of mycelium growth, read-out: efficacy (inhibition of fungal growth)
Outline: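 Spectrometric readout of mycelial growth after 5-day incubation gauged compound effects on spore germination and growth of A. alternata in liquid medium. Compounds were delivered in DMSO at ≤1% final. Absorbance was compared with untreated controls to give inhibition.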

[2] = system: Pyrenophora teres; experiment: In vivo preventive test on Pyrenophora teres (net blotch on barley); conditions: 240 h, 500 ppm of active ingredient, preventive spray on barley, evaluated 10 days after inoculation, read-out: efficacy
Protocol: B-3. In Vivo Preventive Test on Pyrenophora Teres (Net Blotch on Barley) [table] The active ingredients were made soluble and homogenized in a mixture of Dimethyl sulfoxide/Acetone/Tween® 80 and then diluted in water to the desired concentration. The young plants of barley were treated by spraying the active ingredient prepared as described above. Control plants were treated only with an aqueous solution of Acetone/Dimethyl sulfoxide/Tween® 80. After 24 hours, the plants were contaminated by spraying the leaves with an aqueous suspension of Pyrenophora teres spores. The contaminated barley plants were incubated for 48 hours at 20° C. and at 100% relative humidity and then for 8 days at 20° C. and at 70-80% relative humidity.

[3] = system: Alternaria brassicae; experiment: In vivo preventive test on Alternaria brassicae (leaf spot on radish or cabbage); conditions: 500 ppm of active ingredient, preventive spray on radish or cabbage, evaluated 3 to 4 days after inoculation, read-out: efficacy
Outline: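 Protective spray on young radish or cabbage: actives in water diluted from DMSO/acetone/Tween 80, with solvent-only controls. Leaves were challenged after 24 h with a spore suspension, and plants were held at 100% RH, 20 °C for 3 to 4 days.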

[4] = system: Colletotrichum lindemuthianum; experiment: B-8. Colletotrichum lindemuthianum in vitro cell test; format: cell-based; conditions: 144 h, 20 ppm of active ingredient, 6 days incubation, liquid culture, absorbance, read-out: efficacy (inhibition of fungal growth)
Outline: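 Liquid-culture germination/growth test: compounds in ≤1% final DMSO were added to spore-containing medium. Fungal growth was quantified spectrophotometrically after 6 days of incubation and expressed as inhibition versus untreated controls.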

[5] = system: Botrytis cinerea; experiment: In vivo preventive test on Botrytis cinerea (grey mould); conditions: 500 ppm of active ingredient, preventive spray on gherkin or cabbage, evaluated 4 to 5 days after inoculation, read-out: efficacy
Outline: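 Preventive spray on cabbage or gherkin seedlings, with compound formulated in DMSO/acetone/Tween 80 and water-diluted, preceded spore inoculation by 24 hours. Cabbage was held 4 to 5 days at 20° C., 100% relative humidity; gherkin 4 to 5 days at 17° C., 90% relative humidity.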

[6] = system: Sphaerotheca fuliginea; experiment: In vivo preventive test on Sphaerotheca fuliginea (powdery mildew on cucurbits); conditions: Podosphaera fuliginea, 192 h; 500 ppm of active ingredient; preventive spray on gherkin; evaluated 8 days after inoculation; read-out: efficacy
Outline: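 This is a preventive spray test on gherkin seedlings, with compound formulated in DMSO/acetone/Tween 80 in water and solvent-only controls. Spore inoculation followed one day after treatment. Incubation lasted 8 days at 20 °C, 70–80% RH.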

[7] = system: Botrytis cinerea; experiment: B-11. Botrytis cinerea in vitro cell test; format: cell-based; conditions: 144 h, 20 ppm of active ingredient, 6 days incubation, liquid culture, absorbance, read-out: efficacy (inhibition of fungal growth)
Outline: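 B. cinerea spores were grown in liquid culture with compound (DMSO ≤1% final). Mycelium growth was measured spectrometrically after 6 days, with inhibition taken as absorbance relative to untreated control wells.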

[8] = system: Colletotrichum lindemuthianum; experiment: In vivo preventive test on Colletotrichum lindemuthianum (leaf spot on bean); conditions: 168 h, 500 ppm of active ingredient, preventive spray on bean, evaluated 7 days after inoculation, read-out: efficacy
Protocol: B-5. In Vivo Preventive Test on Colletotrichum lindemuthianum (Leaf Spot on Bean) [table] The active ingredients were made soluble and homogenized in a mixture of Dimethyl sulfoxide/Acetone/Tween® 80 and then diluted in water to the desired concentration. The young plants of bean were treated by spraying the active ingredient prepared as described above. Control plants were treated only with an aqueous solution of Acetone/Dimethyl sulfoxide/Tween® 80. After 24 hours, the plants were contaminated by spraying the leaves with an aqueous suspension of Colletotrichum lindemuthianum spores. The contaminated bean plants were incubated for 24 hours at 20° C. and at 100% relative humidity and then for 6 days at 20° C. and at 90% relative humidity.

[9] = system: Pyrenophora teres; experiment: B-10. Pyrenophora teres in vitro cell test; format: cell-based; conditions: 144 h, 20 ppm of active ingredient, 6 days incubation, liquid culture, absorbance, read-out: efficacy (inhibition of fungal growth)
Outline: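 Liquid-culture assay on a P. teres spore suspension with compounds added to the medium from DMSO solutions, final DMSO ≤1%. Mycelium growth read spectrometrically after 6 days. Inhibition calculated from absorbance against untreated control wells.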

[10] = Measurement of Log P values by HPLC on reversed phase columns (EEC directive 79/831 Annex V.A8); format: physicochemical; conditions: reversed phase HPLC column
Outline: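 Log P derived from retention on reversed-phase columns (EEC directive 79/831 Annex V.A8), LC-UV, acetonitrile gradient 10% to 95% against water containing 0.1% formic acid, 0.001 M ammonium acetate, or 0.1% phosphoric acid; several values per method separated by "+".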

[11] = method [a]: LC-UV, acidic range, 0.1% formic acid in water and acetonitrile as eluent

SMILES | inhibition at 20 ppm [1] [%] | pest or weed control at 500 ppm [2] [%] | pest or weed control at 500 ppm [3] [%] | inhibition at 20 ppm [4] [%] | pest or weed control at 500 ppm [5] [%] | pest or weed control at 500 ppm [6] [%] | inhibition at 20 ppm [7] [%] | pest or weed control at 500 ppm [8] [%] | inhibition at 20 ppm [9] [%] | chromatographic logP [10, 11] | chromatographic logP ([10]; method [b]: LC-UV, neutral range, 0.001 molar ammonium acetate solution in water and acetonitrile as eluent)
Cc1ccc(CCNC(=O)c2c(Oc3cccc(C(F)(F)F)c3)nnc3ccccc23)c(C)c1 [I-230] | 90 to 100 | 80 to 89 | 90 to 100 | 90 to 100 | 90 to 100 | 90 to 100 | 90 to 100 |  |  |  | 
Cc1ccc(C(F)(F)CNC(=O)c2c(Oc3cccc(C4CC4)c3)nnc3ccccc23)c(C)c1 [I-218] | 90 to 100 | 80 to 89 | 90 to 100 | 90 to 100 | 90 to 100 |  | 90 to 100 | 90 to 100 | 90 to 100 | 4.45 | 
Cc1ccc2c(c1)CCC[C@@H]2NC(=O)c1c(Oc2cccc(C(F)(F)F)c2)cnc2c1OCCO2 (racemic) [I-112] | 90 to 100 | 80 to 89 | 90 to 100 | 90 to 100 | 90 to 100 | 90 to 100 |  | 90 to 100 |  | 3.8 | 3.79
Cc1ccc(C(F)(F)CNC(=O)c2c(Oc3cccc(C(F)(F)F)c3)nnc3c2CCCCC3)c(C)c1 [I-113, N-[2-(2,4-dimethylphenyl)-2,2-difluoro-ethyl]-3-[3-(trifluoro-methyl)phenoxy]-6,7,8,9-tetrahydro-5H-cyclohepta[c]pyridazine-4-carboxamide] | 90 to 100 | 70 to 79 | 90 to 100 | 90 to 100 | 90 to 100 | 90 to 100 |  | 80 to 89 |  | 4.28 | 
Cc1ccc(CCNC(=O)c2c(Oc3cccc(C(F)(F)F)c3)nnc3ccsc23)c(C)c1 [I-231] |  | 70 to 79 | 90 to 100 |  |  | 90 to 100 | 80 to 89 |  |  | 4.77 | 
Cc1ccc2c(C(=O)NC[C@H](F)c3ccc(Cl)cc3Cl)c(Oc3cccc(C(F)(F)F)c3)nnc2c1 (racemic) [I-047] | 90 to 100 | 80 to 89 | 90 to 100 | 90 to 100 | 90 to 100 | 90 to 100 |  |  |  | 4.45 | 
O=C(NC[C@H](F)c1ccc(Cl)cc1Cl)c1c(Oc2cccc(C(F)(F)F)c2)cnc2c1OCCO2 (racemic) [I-108] | 90 to 100 | 90 to 100 | 90 to 100 | 90 to 100 | 90 to 100 | 90 to 100 |  | 90 to 100 |  | 3.77 | 
Cc1ccc(C(F)(F)CNC(=O)c2c(Oc3cccc(C(F)(F)F)c3)cnc3ccoc23)c(C)c1 [I-066, N-[2-(2,4-dimethylphenyl)-2,2-difluoro-ethyl]-6-[3-(trifluoro-methyl)phenoxy]furo[3,2-b]pyridine-7-carboxamide] | 90 to 100 | 70 to 79 | 90 to 100 | 90 to 100 | 90 to 100 | 90 to 100 | 90 to 100 |  | 90 to 100 | 4.14 | 
O=C(NC[C@H](F)c1ccc(Br)cc1Cl)c1c(Oc2cccc(C(F)F)c2)nnc2ccccc12 (racemic) [I-029] | 90 to 100 | 70 to 79 | 90 to 100 | 90 to 100 | 90 to 100 | 70 to 79 |  | 90 to 100 |  | 4.01 | 
Cc1ccc(C(F)(F)CNC(=O)c2c(Oc3cccc(C(F)F)c3)nnc3ccccc23)c(C)c1 [I-033] | 90 to 100 | 70 to 79 | 90 to 100 | 90 to 100 | 90 to 100 | 90 to 100 |  | 80 to 89 |  | 3.92 | 
Cc1ccc(C(F)(F)CNC(=O)c2c(Oc3cccc(C4CC4)c3F)nnc3c2N[C@@H](O)CC3)c(C)c1 (racemic) [I-116] | 90 to 100 | 80 to 89 | 90 to 100 | 90 to 100 | 90 to 100 | 90 to 100 |  | 90 to 100 |  | 3.74 | 
Cc1ccc(C(F)(F)CNC(=O)c2c(Oc3cccc(Cl)c3)nnc3ccccc23)c(C)c1 [I-024] | 90 to 100 | 70 to 79 | 90 to 100 | 90 to 100 | 90 to 100 | 90 to 100 |  | 90 to 100 |  | 4.2 | 
Cc1cccc(Oc2nnc3ccccc3c2C(=O)NCC(F)(F)c2ccc(Br)cc2Cl)c1 [I-015] | 90 to 100 | 70 to 79 | 90 to 100 | 90 to 100 | 90 to 100 | 90 to 100 |  |  |  | 4.37 | 
O=C(NCC(F)(F)c1ccc(Br)cc1Cl)c1c(Oc2cccc(C(F)(F)F)c2)cnc2c1OCCO2 [I-107, N-[2-(4-bromo-2-chloro-phenyl)-2,2-difluoro-ethyl]-7-[3-(tri-fluoromethyl)phenoxy]-2,3-dihydro-[1,4]dioxino[2,3-b]pyridine-8-carboxamide] | 90 to 100 | 80 to 89 | 90 to 100 | 90 to 100 | 90 to 100 | 90 to 100 |  | 90 to 100 |  | 3.94 | 
Cc1ccc(CCNC(=O)c2c(Oc3cccc(C(F)(F)F)c3)nnc3c2OCCO3)c(C)c1 [I-104] | 90 to 100 | 80 to 89 | 90 to 100 | 80 to 89 | 90 to 100 | 90 to 100 |  | 90 to 100 |  | 3.28 | 
Cc1ccc([C@@H](F)CNC(=O)c2c(Oc3cccc(Cl)c3)nnc3ccccc23)cc1C (racemic) [I-048] | 90 to 100 | 90 to 100 | 90 to 100 | 90 to 100 | 90 to 100 |  | 90 to 100 | 90 to 100 |  | 4.05 | 
Cc1cccc(Oc2nnc3ccccc3c2C(=O)NCC(F)(F)c2ccc(Cl)cc2)c1 [I-014] | 90 to 100 | 70 to 79 | 90 to 100 | 90 to 100 | 90 to 100 | 90 to 100 |  |  |  | 3.87 | 
